pEC50: −log10 of the molar value. Several values for one entry are separate records, joined by “and”; a condition that tells them apart may be missing. Identical values can stand only once. Where only a bound is given, the exact number is not on record here.

Experiment [1] deals with Metabotropic glutamate receptor 2 (Homo sapiens, UniProt Q14416). The experiment is described as follows: Concentration for half maximal activation of metabotropic glutamate mGluR2 in human.
The target of experiment [2] is Metabotropic glutamate receptor 2 (Rattus norvegicus, UniProt P31421). The experiment can be described thus: Concentration for half maximal activation of metabotropic glutamate mGluR2 in rat.
Sequence of Metabotropic glutamate receptor 2 (Rattus norvegicus, UniProt P31421) (P31421 whole entry): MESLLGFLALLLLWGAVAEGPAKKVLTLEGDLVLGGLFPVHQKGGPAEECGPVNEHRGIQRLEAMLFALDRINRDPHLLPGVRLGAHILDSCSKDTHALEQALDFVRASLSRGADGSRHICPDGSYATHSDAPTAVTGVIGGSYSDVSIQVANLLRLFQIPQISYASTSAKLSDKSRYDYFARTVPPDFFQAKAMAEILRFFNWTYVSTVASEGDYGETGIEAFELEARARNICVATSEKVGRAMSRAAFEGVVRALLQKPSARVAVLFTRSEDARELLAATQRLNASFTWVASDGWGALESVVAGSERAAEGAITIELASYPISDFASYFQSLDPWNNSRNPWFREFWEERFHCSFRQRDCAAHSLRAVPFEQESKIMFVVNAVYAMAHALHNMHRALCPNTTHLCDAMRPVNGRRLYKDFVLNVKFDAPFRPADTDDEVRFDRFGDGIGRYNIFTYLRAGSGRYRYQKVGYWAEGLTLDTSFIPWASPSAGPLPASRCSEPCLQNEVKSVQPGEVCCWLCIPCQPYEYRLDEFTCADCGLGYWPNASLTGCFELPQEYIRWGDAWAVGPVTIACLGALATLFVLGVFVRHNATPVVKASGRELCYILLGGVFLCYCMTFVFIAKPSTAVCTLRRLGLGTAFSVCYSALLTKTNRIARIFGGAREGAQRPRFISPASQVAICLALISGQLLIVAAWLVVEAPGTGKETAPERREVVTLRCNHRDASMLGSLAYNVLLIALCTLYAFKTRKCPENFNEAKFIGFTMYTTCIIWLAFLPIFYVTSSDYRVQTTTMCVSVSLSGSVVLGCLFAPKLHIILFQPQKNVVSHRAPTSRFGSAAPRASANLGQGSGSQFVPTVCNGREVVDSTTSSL
Experiment [3] has as its target Metabotropic glutamate receptor 4 (Rattus norvegicus, UniProt P31423). The experiment is described as follows: Concentration for half maximal activation of metabotropic glutamate mGluR4a in rat.
The target of experiment [4] is T1, Metabotropic glutamate receptor 1 (Rattus norvegicus, UniProt P23385). The experiment can be described thus: Concentration for half maximal activation of metabotropic glutamate mGluR1a in rat.
In experiment [5] the target is Metabotropic glutamate receptor 3 (Rattus norvegicus, UniProt P31422). The experiment is described as follows: Concentration for half maximal activation of metabotropic glutamate mGluR3 in rat.
For experiment [6], the target named is Metabotropic glutamate receptor 4 (Homo sapiens, UniProt Q14833). The experiment is described as follows: Concentration for half maximal activation of metabotropic glutamate mGluR4a in human.
In experiment [7] the target is Metabotropic glutamate receptor 7 (Rattus norvegicus, UniProt P35400). The experiment is described as follows: Concentration for half maximal activation of metabotropic glutamate mGluR7 in rat.
Sequence of Metabotropic glutamate receptor 7 (Rattus norvegicus, UniProt P35400) (P35400 whole entry): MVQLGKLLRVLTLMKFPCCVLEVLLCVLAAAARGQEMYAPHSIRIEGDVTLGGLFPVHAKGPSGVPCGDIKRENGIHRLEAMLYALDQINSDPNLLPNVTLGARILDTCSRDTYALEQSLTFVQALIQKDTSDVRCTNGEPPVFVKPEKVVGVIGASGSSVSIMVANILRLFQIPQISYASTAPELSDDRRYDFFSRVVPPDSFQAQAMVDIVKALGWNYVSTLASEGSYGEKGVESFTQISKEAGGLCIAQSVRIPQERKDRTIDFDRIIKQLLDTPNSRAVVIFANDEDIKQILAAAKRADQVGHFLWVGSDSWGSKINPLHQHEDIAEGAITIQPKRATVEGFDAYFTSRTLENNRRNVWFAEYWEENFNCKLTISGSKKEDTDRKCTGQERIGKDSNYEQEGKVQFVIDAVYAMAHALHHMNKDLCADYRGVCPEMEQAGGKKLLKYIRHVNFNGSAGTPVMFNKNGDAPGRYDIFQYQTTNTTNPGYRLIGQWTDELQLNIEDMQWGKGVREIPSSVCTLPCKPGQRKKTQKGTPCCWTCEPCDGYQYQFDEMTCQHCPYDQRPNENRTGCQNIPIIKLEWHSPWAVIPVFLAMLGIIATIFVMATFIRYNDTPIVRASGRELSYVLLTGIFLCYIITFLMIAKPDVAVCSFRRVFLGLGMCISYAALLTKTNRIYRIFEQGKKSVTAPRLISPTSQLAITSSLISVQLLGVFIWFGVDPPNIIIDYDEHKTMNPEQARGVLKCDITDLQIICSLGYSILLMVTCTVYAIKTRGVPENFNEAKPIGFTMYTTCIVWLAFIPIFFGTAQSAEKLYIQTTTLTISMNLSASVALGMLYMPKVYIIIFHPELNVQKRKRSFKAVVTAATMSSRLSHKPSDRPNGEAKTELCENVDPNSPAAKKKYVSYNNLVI
Experiment [8] has as its target Metabotropic glutamate receptor 6 (Rattus norvegicus, UniProt P35349). The experiment is described as follows: Concentration for half maximal activation of metabotropic glutamate mGluR6 in rat.
The target of experiment [9] is Metabotropic glutamate receptor 7 (Homo sapiens, UniProt Q14831). The experiment is described as follows: Concentration for half maximal activation of metabotropic glutamate mGluR7 in human.
Sequence of Metabotropic glutamate receptor 7 (Homo sapiens, UniProt Q14831) (Q14831 whole entry): as the sequence (P35400 whole entry) above, with G5R, V27A, H454N, T488S, S520A, N578D counted along it
For experiment [10], the target named is Metabotropic glutamate receptor 8 (Mus musculus, UniProt P47743). The experiment is described as follows: Concentration for half maximal activation of metabotropic glutamate mGluR8 in mouse. It counts as single protein.
In experiment [11] the target is T1, Metabotropic glutamate receptor 1. The experiment is described as follows: Concentration for half maximal activation of metabotropic glutamate mGluR1c in rat.
Experiment [12] has as its target T2, Metabotropic glutamate receptor 5 (Rattus norvegicus, UniProt P31424). The experiment is described as follows: Concentration for half maximal activation of metabotropic glutamate mGluR5a in rat.
Experiment [13] addresses T2, Metabotropic glutamate receptor 5. The experiment can be described thus: Concentration for half maximal activation of metabotropic glutamate mGluR5b in rat.
Experiment [14] concerns the target T1, Metabotropic glutamate receptor 1. The experiment is described as follows: Concentration for half maximal activation of metabotropic glutamate mGluR1b in rat.
In experiment [15] the target is Metabotropic glutamate receptor 5 (Homo sapiens, UniProt P41594). The experiment is described as follows: Concentration for half maximal activation of metabotropic glutamate mGluR5a in human.

Sequence of Metabotropic glutamate receptor 2 (Homo sapiens, UniProt Q14416) (Q14416 whole entry): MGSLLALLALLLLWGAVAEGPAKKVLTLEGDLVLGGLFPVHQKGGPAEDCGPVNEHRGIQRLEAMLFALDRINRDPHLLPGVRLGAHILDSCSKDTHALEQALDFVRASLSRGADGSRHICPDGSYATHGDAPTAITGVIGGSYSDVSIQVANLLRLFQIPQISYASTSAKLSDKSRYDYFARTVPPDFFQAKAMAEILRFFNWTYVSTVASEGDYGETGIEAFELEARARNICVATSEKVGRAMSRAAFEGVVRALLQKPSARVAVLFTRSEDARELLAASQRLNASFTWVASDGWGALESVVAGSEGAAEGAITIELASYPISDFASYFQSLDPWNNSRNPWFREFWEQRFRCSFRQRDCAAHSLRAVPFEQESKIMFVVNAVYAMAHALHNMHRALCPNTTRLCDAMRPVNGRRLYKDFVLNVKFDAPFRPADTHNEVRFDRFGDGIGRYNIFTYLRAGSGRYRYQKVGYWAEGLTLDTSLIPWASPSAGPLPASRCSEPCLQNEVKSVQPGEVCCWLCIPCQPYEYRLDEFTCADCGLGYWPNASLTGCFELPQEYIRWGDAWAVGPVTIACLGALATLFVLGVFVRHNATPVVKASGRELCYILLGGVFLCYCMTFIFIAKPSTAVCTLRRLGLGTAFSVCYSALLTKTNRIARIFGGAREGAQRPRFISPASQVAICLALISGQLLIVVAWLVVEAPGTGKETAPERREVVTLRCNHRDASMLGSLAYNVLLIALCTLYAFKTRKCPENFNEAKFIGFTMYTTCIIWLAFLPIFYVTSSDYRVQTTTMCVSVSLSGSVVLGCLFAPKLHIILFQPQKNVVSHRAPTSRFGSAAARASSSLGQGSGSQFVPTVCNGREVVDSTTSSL
Sequence of Metabotropic glutamate receptor 6 (P35349 whole entry): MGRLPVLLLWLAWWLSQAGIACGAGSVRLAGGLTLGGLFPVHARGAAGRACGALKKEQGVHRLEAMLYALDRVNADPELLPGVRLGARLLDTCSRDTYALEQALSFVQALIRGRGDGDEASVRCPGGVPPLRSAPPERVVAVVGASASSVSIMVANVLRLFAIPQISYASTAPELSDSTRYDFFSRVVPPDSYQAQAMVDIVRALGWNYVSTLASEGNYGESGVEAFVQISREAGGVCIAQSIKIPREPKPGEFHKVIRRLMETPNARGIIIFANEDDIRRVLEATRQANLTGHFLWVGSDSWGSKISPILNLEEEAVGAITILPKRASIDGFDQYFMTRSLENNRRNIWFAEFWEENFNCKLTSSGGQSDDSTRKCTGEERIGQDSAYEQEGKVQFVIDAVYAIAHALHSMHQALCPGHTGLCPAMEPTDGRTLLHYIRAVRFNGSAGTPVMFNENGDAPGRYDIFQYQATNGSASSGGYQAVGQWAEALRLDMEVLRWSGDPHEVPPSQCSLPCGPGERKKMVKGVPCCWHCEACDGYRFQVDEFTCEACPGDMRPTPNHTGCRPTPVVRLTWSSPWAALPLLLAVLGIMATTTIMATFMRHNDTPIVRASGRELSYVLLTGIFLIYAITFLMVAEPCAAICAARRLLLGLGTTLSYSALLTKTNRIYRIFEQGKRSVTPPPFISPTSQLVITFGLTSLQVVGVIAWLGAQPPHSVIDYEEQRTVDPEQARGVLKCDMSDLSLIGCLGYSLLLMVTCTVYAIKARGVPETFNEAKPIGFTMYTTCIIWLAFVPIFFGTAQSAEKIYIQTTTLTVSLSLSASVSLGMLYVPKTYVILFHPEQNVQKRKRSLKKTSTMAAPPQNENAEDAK
T2 sequence (P31424 whole entry): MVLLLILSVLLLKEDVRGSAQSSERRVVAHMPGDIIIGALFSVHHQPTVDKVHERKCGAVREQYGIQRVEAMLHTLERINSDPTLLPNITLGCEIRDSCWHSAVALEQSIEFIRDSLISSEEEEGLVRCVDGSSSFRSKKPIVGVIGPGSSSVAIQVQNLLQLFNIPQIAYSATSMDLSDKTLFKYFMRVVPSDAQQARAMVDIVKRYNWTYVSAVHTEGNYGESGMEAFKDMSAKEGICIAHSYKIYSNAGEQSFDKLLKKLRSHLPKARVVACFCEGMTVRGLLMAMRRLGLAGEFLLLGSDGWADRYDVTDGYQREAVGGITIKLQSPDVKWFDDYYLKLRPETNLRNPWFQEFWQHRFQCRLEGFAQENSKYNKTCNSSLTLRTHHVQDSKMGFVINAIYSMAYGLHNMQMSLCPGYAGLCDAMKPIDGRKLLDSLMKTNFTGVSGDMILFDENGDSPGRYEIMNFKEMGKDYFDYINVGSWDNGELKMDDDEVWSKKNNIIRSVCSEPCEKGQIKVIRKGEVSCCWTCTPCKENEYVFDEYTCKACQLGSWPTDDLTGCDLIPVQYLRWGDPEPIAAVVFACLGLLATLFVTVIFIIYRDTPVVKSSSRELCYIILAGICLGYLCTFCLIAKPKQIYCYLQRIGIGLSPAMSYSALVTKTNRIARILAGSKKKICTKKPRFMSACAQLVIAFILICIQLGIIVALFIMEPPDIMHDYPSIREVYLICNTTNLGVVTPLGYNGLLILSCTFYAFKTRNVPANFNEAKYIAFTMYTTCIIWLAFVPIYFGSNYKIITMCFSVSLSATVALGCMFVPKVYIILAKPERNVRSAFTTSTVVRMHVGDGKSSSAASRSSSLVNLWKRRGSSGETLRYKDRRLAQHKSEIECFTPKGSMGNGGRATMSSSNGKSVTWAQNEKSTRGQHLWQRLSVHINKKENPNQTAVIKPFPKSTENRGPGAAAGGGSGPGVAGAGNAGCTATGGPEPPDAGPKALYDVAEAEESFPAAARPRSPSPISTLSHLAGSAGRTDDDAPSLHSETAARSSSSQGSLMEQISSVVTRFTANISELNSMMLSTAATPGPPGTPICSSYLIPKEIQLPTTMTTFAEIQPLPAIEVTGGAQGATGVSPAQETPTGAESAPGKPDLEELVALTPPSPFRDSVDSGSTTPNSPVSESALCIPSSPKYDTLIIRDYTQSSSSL

As to `N[C@H](C(=O)O)[C@H]1C[C@@H]1C(=O)O`, the figures for the pEC50 in [1] and in [2] were 6.42 and 6.12, respectively.

In the case of `N[C@H](C(=O)O)C1[C@@H](C(=O)O)[C@@H]1C(=O)O` (stereo partly specified), the negative-log EC50 (pEC50) in experiment [3] is below 3.00; in [4], below 3.00; in [2], 6.52; in experiment [5] it was 6.52.

Turning to `N[C@@H](CCP(=O)(O)O)C(=O)O`, the negative logarithm of the EC50 (pEC50) was 6.70 in experiment [6]; 3.80 and 3.30 in experiment [7]; 6.30 and 5.92 in [3]; 6.05 in experiment [8]; 3.70 in [9]; below 3.00 in experiment [1]. Besides, the figures for the negative-log EC50 (pEC50) in experiment [10], in experiment [2] and in [11] were 6.40, below 3.00 and below 3.00, respectively.

As to `N[C@@]1(C(=O)O)CC[C@@H](C(=O)O)C1`, the pEC50 in [12] was 4.30; in [7], below 3.00; in experiment [3], < 4.00 and 4.41; in experiment [8], below 3.70; in experiment [9], below 3.00; in [1], 4.92. Besides, the negative logarithm of the EC50 (pEC50) was below 4.00 in [10]; 5.30 and 5.11 in [2]; 5.10 in experiment [5].

Consider `N[C@@H](COP(=O)(O)O)C(=O)O` [DEXFOSFOSERINE], for which the pEC50 was 5.89 in [6]; 3.80 in experiment [7]; 5.40 in experiment [3]; 5.57 in experiment [8]; above 3.70 in [9].

Take `N[C@@H](CCC(=O)O)C(=O)O` [GLUTAMIC ACID]: the pEC50 in [7] is 3.00 and 2.89; in [3], 5.30 and 5.49; in experiment [8], 4.80; in experiment [9], below 3.30; in [10] it was 7.66; in experiment [5] it was 5.52.

Regarding `N[C@H](C(=O)O)c1cc(=O)[nH]o1` [IBOTENIC ACID], the pEC50 was 5.00 and 5.10 in [12]; 5.10 in [13]; 3.23 in experiment [3]; 3.00 in experiment [8]; below 4.00 in [10]; 5.22 in experiment [4]. In addition, the pEC50 is 4.36 in [14], 4.22 in experiment [11] and 5.00 in [5].

As to `N[C@@H](Cn1oc(=O)[nH]c1=O)C(=O)O` [QUISQUALATE], the negative logarithm of the EC50 (pEC50) in [12] was 6.52 and 6.70; in experiment [6], below 3.30; in [7], below 3.00; in experiment [13], 6.70; in [3] it was < 4.00 and 3.89; in experiment [8], 3.00. Besides, the pEC50 in experiment [9] is below 3.00; in experiment [1] it was below 3.00; in [10], below 4.00; in experiment [15], 6.82; in [2], below 3.00; in experiment [5], 4.40.

Source of the values: ChEMBL document CHEMBL1128305, “Metabotropic glutamate receptors: novel targets for drug development” (J Med Chem, 1995).
